Test results taken from the supplement of paper PMC10307832.

How the values were obtained:
Experiment in all cases: relative viability (nuclei count vs DMSO), 5 days (fraction); higher = more cells survive
Sorafenib + Vorinostat = compound: CNC(=O)c1cc(Oc2ccc(NC(=O)Nc3ccc(Cl)c(C(F)(F)F)c3)cc2)ccn1 [Sorafenib] + O=C(CCCCCCC(=O)Nc1ccccc1)NO [Vorinostat] (partner 1 µM)
Summary of the method: (§1)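 Lung cancer cell lines were pin-tool dosed in 1536-well plates on the day after seeding, with either a lone drug or a fixed anchor-drug dose plus five library-drug doses (not always all listed) in √10 steps. Nuclei were counted on 4× images after 5 days. Relative viability is the ratio of treated-well to vehicle-well nuclei counts, with each value a median of duplicate plates.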

Sorafenib + Trametinib = compound: CNC(=O)c1cc(Oc2ccc(NC(=O)Nc3ccc(Cl)c(C(F)(F)F)c3)cc2)ccn1 [Sorafenib] + CC(=O)Nc1cccc(-n2c(=O)n(C3CC3)c(=O)c3c(Nc4ccc(I)cc4F)n(C)c(=O)c(C)c32)c1 [Trametinib] (partner 0.02 µM)
Summary of the method: as §1

Sorafenib + Dasatinib = compound: CNC(=O)c1cc(Oc2ccc(NC(=O)Nc3ccc(Cl)c(C(F)(F)F)c3)cc2)ccn1 [Sorafenib] + Cc1nc(Nc2ncc(C(=O)Nc3c(C)cccc3Cl)s2)cc(N2CCN(CCO)CC2)n1 [Dasatinib] (partner 0.075 µM)
Summary of the method: as §1

Sorafenib + Foretinib = compound: CNC(=O)c1cc(Oc2ccc(NC(=O)Nc3ccc(Cl)c(C(F)(F)F)c3)cc2)ccn1 [Sorafenib] + COc1cc2c(Oc3ccc(NC(=O)C4(C(=O)Nc5ccc(F)cc5)CC4)cc3F)ccnc2cc1OCCCN1CCOCC1 [Foretinib] (partner 0.25 µM)
Summary of the method: as §1

Sorafenib + Lapatinib = compound: CNC(=O)c1cc(Oc2ccc(NC(=O)Nc3ccc(Cl)c(C(F)(F)F)c3)cc2)ccn1 [Sorafenib] + CS(=O)(=O)CCNCc1ccc(-c2ccc3ncnc(Nc4ccc(OCc5cccc(F)c5)c(Cl)c4)c3c2)o1 [Lapatinib] (partner 2 µM)
Summary of the method: as §1

Cell Line | relative viability (Sorafenib + Vorinostat; first compound 0.08 µM) | relative viability (Sorafenib + Vorinostat; first compound 0.253 µM) | relative viability (Sorafenib + Vorinostat; first compound 2.53 µM) | relative viability (Sorafenib + Vorinostat; first compound 8 µM) | relative viability (Sorafenib + Trametinib; first compound 0.08 µM) | relative viability (Sorafenib + Trametinib; first compound 0.253 µM) | relative viability (Sorafenib + Trametinib; first compound 2.53 µM) | relative viability (Sorafenib + Trametinib; first compound 8 µM) | relative viability (Sorafenib + Dasatinib; first compound 0.08 µM) | relative viability (Sorafenib + Dasatinib; first compound 0.253 µM) | relative viability (Sorafenib + Dasatinib; first compound 2.53 µM) | relative viability (Sorafenib + Dasatinib; first compound 8 µM) | relative viability (Sorafenib + Foretinib; first compound 0.08 µM) | relative viability (Sorafenib + Foretinib; first compound 0.253 µM) | relative viability (Sorafenib + Foretinib; first compound 2.53 µM) | relative viability (Sorafenib + Foretinib; first compound 8 µM) | relative viability (Sorafenib + Lapatinib; first compound 0.08 µM) | relative viability (Sorafenib + Lapatinib; first compound 0.253 µM) | relative viability (Sorafenib + Lapatinib; first compound 2.53 µM) | relative viability (Sorafenib + Lapatinib; first compound 8 µM)
LCLC-103H | 0.813 | 0.75 | 0.778 | 0.737 | 0.68 | 0.731 | 0.691 | 0.674 | 0.617 | 0.424 | 0.44 | 0.497 | 0.793 | 0.794 | 0.813 | 0.882 | – | – | – | –
LK-2 | 0.371 | 0.298 | 0.143 | 0.148 | 0.78 | 0.764 | 0.512 | 0.239 | 0.259 | 0.267 | 0.341 | 0.263 | 1.06 | 1 | 0.976 | 0.747 | 1.22 | 0.804 | 0.906 | 0.671
LOU-NH91 | 1.03 | 0.881 | 1.11 | 0.493 | 0.782 | 0.769 | 0.837 | 0.746 | 0.692 | 0.52 | 0.686 | 0.361 | 1.02 | 0.973 | 1.08 | 0.942 | – | 0.71 | 0.829 | 0.728
LU99A | 0.487 | 0.445 | 0.437 | 0.192 | 0.509 | 0.404 | 0.252 | 0.263 | 0.512 | 0.504 | 0.608 | 0.351 | 0.741 | 0.758 | 0.78 | 0.728 | 1.16 | 0.998 | 0.952 | 0.895
